According to US8022047B2, “Combination anticancer agents” (Chugai Seiyaku Kabushiki Kaisha, priority 2005, dated 2011):
Where two headings read alike, the source gives them in different places.

Legend:
[1] = test system: human lung cancer Calu-6 xenograft; assay: Antitumor effect in xenograft model, compound 2A plus CDDP or carboplatin (Example 4); assay type: in vivo; conditions: mice; i.v. once in a three-week period
Method: The human lung cancer cell line Calu-6 was purchased from ATCC.
CPT-11, CDDP, and carboplatin were purchased from Daiichi Pharmaceuticals, Nippon Kayaku, and Bristol-Meyers Squibb, respectively.
Compound 2A, CPT-11, CDDP, and carboplatin were dissolved and diluted in a saline solution. […] CDDP and carboplatin were intravenously administered once in a three-week period.
In one therapeutic cycle, compound 2A and CPT-11 were administered once a week for three consecutive weeks, and CDDP and carboplatin were administered once in the three-week period.

[2] = test system: human colorectal cancer HCT116 xenograft
Method: The human colorectal cancer cell line HCT116 was purchased from ATCC. Cells were monolayer cultured in McCoy's 5a medium containing 2 mM L-glutamine and 10% (v/v) fetal bovine serum.
Five-week old male athymic nude mice (BALB/c nu/nu) were purchased from Charles River Japan. The mice were reared for at least one week prior to the experiment at the animal facility of the research institute.
A single cell suspension of HCT116 (8×10^6 cells per mouse) was inoculated subcutaneously into the right side of the abdomen of each mouse. The tumor size of each mouse was measured twice a week and the tumor volume was estimated using the ab^2/2 formula (a and b refer to the length and width of the tumor, respectively). Randomization and administration pharmaceuticals were begun the day the tumor volume exceeded 100 mm^3
The dosage is as follows.
Capecitabine was dissolved and diluted in 40 mM citric acid buffer (pH6) containing 5% gum arabic.

[3] = test system: human pancreatic cancer Capan-1 xenograft; conditions: mice; i.v. once a week for four consecutive weeks
Method: A single cell suspension of Capan-1 (8.4×10^6 cells per mouse) was inoculated subcutaneously into the right side of the abdomen of each mouse. The tumor size of each mouse was measured twice a week and the tumor volume was estimated using the ab^2/2 formula (a and b refer to the length and width of the tumor, respectively). Randomization and administration of pharmaceuticals were begun the day the tumor volume exceeded 100 mm^3
Gemcitabine was dissolved and diluted in physiological saline, and intravenously administered once a week for four consecutive weeks.
Gemcitabine was administered once a week for four consecutive weeks.

N.N.O=C([O-])C1(C(=O)[O-])CCC1.[Pt+2] [carboplatin]
MTD (maximum tolerated dose) [1]: 50 mg/kg/injection

CCCCCOC(=O)Nc1nc(=O)n([C@@H]2O[C@H](C)[C@@H](O)[C@H]2O)cc1F [capecitabine]
MTD (maximum tolerated dose) ([2]; mouse, in vivo, po): 360 mg/kg/injection

Nc1ccn([C@@H]2O[C@H](CO)[C@@H](O)C2(F)F)c(=O)n1 [gemcitabine]
MTD (maximum tolerated dose) [3]: 400 mg/kg/injection

CCCCCN1C=Nc2cccc3nc4c(c1c23)Cn1c-4cc2c(c1=O)COC(=O)[C@@]2(CC)OC(=O)CN(C)C(=O)CN.Cl [compound 2A, (9S)-9-ethyl-9-(glycyl-sarcosyloxy)-1-pentyl-1H,12H-pyrano[3″,4″:6′,7′]indolizino[1′,2′:6,5]pyrido[4,3,2-de]quinazoline-10,13(9H,15H)-dione hydrochloride]
MTD (maximum tolerated dose) ([2]; mice, i.v. once during a three-week period, actually measured weight of the hydrochloride): 60 mg/kg/injection | MTD (maximum tolerated dose) as free base ([2]; mice, i.v. once during a three-week period, weight converted to free base): 47 mg/kg/injection
